The source of these data is patent US8173632B2, “Process for the modification of the solid state of a compound and co-amorphous compositions produced with same” (priority 2007, dated 2012).

SMILES strings stand for the structures. ≈ marks a conversion by molar mass, not a printed value. Entries after “also recorded” stand apart in the source; their conditions may differ.

The conditions of data set [1]: literature reports; temperature as stated in value; cited from earlier work.
For data set [2] the following is noted: room temperature; cited from earlier work.
Data set [3] is described as follows: Petri dish with non-crystalline aspirin placed on edge (flow test). In kind it is physicochemical. The conditions noted are these: Petri dish placed on edge for about six weeks. From the text:
(§1) Subsequent tests with the protocol of Example 1b were repeated with the order of long and short wavelengths reversed, i.e., short wavelength followed by long wavelength cycled sequenced laser treatment. This protocol also produced up to 90 percent yields of room temperature stable non-crystalline glass aspirin, which remained stable at room temperature for over 23 months. The Petri dish containing such a sample of non-crystalline aspirin was placed on edge for a period of about six weeks.

Data set [4] in a line: Room temperature storage stability of the non-crystalline / co-amorphous form against recrystallization. Format: physicochemical. The conditions noted are these: for stability of the non-crystalline / co-amorphous form, tendency to recrystallization (in words): room temperature storage.
Source text: The present invention is directed to stable crystalline and non-crystalline forms of organic compositions, particularly pharmaceutical compositions, that are stable at room temperature and to processes for producing the stable crystalline and non-crystalline forms with the process of the invention.
Within an hour of the evaporation, the system stabilized with 80 percent or more of the mass of the sample cured to a clear non-crystalline form rather than a crystalline form.
After the 6 months of storage, the laser treated aspirin was studied by PXRD.
as §1
The glass cover was removed and the sample was allowed to desolvate in an open container through slow evaporation at about 20° C. and a relative humidity of 31 percent. Before the solvent had fully evaporated, the sample developed a few small areas of apparent crystallization that were surrounded with marker lines. As the evaporation continued, no significant extension of the crystal fronts was observed.

For data set [5] the following is noted: bulk form, same mass; cited from earlier work.

`CC(=O)Oc1ccccc1C(=O)O` [Aspirin Form II, aspirin]: the “stability of prior art aspirin forms against conversion / crystallization (in words)” value in data set [1] is reported as “kinetically stable at 100 K (−173° C.), but converts back to Form I at ambient conditions”.
Consider `CC(=O)Oc1ccccc1C(=O)O` [amorphous aspirin, aspirin], for which the “stability of prior art aspirin forms against conversion / crystallization (in words)” value in data set [1] is reported as “converts rapidly to the crystalline Form I”.
For `CC(=O)Oc1ccccc1C(=O)O` [crystalline aspirin, Aspirin], the solubility in water in data set [2] was 3330 µg/mL (≈ 18.5 mM).
In the case of `CC(=O)Oc1ccccc1C(=O)O` [non-crystalline aspirin, Aspirin], the “flowing of the sample” value in data set [3] is “No flowing of the sample was observed”. Moreover, the “period of storage with no change in appearance of the sample” value in data set [4] (room temperature of about 18° to 22° C. and about 30 to 40 percent humidity, Example 1b) is “over 6 months”. Moreover, the “stability of the non-crystalline / co-amorphous form, tendency to recrystallization (in words)” value in data set [4] is reported as “remain stable at room temperature for at least up to about a year; also recorded: stable at room temperature once the solvent had evaporated; also recorded: No crystallization has been observed in similarly prepared samples following an additional six months of storage”. The “period the non-crystalline glass remained stable” value in data set [4] (room temperature, Example 1c, short wavelength followed by long wavelength) is given as “over 23 months”.
Regarding `O=C1[C@H](CC[C@H](O)c2ccc(F)cc2)[C@@H](c2ccc(O)cc2)N1c1ccc(F)cc1` [non-crystalline ezetimibe, Ezetimibe], the “stability of the non-crystalline / co-amorphous form, tendency to recrystallization (in words)” value in data set [4] is given as “remained stable for five weeks; also recorded: resisted crystallization even when adjacent to an organizing crystal front”.
Take `CC(=O)Oc1ccccc1C(=O)O` [vitreous aspirin, aspirin]: the “stability of prior art aspirin forms against conversion / crystallization (in words)” value in data set [1] is listed as “did not crystallize for four to five days at 298K”. Besides, in data set [5], the “dissolution of bulk vitreous aspirin compared with powdered crystals” value is on record as “dissolve more slowly than the same mass of finely powdered crystals of aspirin”.
